Consider 2 molecules from US12290513B2, “Therapeutic methods and compositions for treating movement disorders” (Vima Therapeutics, Inc., priority 2023, dated 2025).

What is called EC50 is the concentration at which the effect is half-maximal.

The target in series [1] is T1, human M4 receptor (Homo sapiens, UniProt P08173).
T1 construct: expressed in transfected cells; host or cells: CHO (transient transfection)
Description: Calcium flux assay (FLIPR), CHO cells transiently transfected with human M4. It counts as cell-based. As to conditions: agonist mode. Here is the method: All cells used in the following experiments were clonal populations of Chinese Hamster Ovary (CHO) cells stably expressing the corresponding human muscarinic receptor, except for the M4 cell line, which was a population of CHO cells transiently transfected with the human M4 receptor. […] The procedure was as follows: • 1. Cells were thawed and cultured in cell culture medium (DMEM/F12 containing 10% FBS, 1× penicillin-streptomycin and 600 μg/ml hygromycin B) at 37° C. in 5% (v/v) CO2. • 2. One day before the assays, cells were detached using TrypLE™ and counted using a cell-counter. […] 12,000 cells/well were seeded in 30 μl/well culture medium in a 384-well cell plate and incubated overnight at 37C, 5% (v/v) CO2. • 4. On the assay day, 2× dye solution was prepared following the manual of the FLIPR® Calcium 6 Assay Kit: • i. The dye was diluted with assay buffer (20 mM HEPES in 1× HBSS, PH 7.4); • ii. Probenecid was added to a final concentration of 5 mM; • iii. Cells were vortexed vigorously for 1-2 minutes. • 5. Medium was removed from the cell plate by flicking the cell plate on paper towels. • 6. 10 μl of assay buffer and 10 μl of 2× dye solution was added to each well of the cell plate. • 7. […] Plates were read for 160 sec with 1 sec intervals to obtain the data in agonist mode, then kept at 25° C. in the dark for 30 min. • 11.

Series [2] addresses T2, human muscarinic receptor M5 (Homo sapiens, UniProt P08912).
T2 construct: expressed in transfected cells
Nature of the series: Calcium flux assay (FLIPR), CHO cells expressing human M5. It counts as cell-based. The following applies: agonist mode. Here is the method:
(§1) All cells used in the following experiments were clonal populations of Chinese Hamster Ovary (CHO) cells stably expressing the corresponding human muscarinic receptor, except for the M4 cell line, which was a population of CHO cells transiently transfected with the human M4 receptor. Muscarinic agonism and antagonism of each receptor was measured by a quantitative calcium flux assay that is used for multiple classes of G-protein-coupled receptors, or GPCRs, as described elsewhere (e.g., Arkin et al., […], PMID: 22553878). Acetylcholine and atropine were used as positive controls for receptor agonism and antagonism, respectively. The procedure was as follows: • 1. Cells were thawed and cultured in cell culture medium (DMEM/F12 containing 10% FBS, 1× penicillin-streptomycin and 600 μg/ml hygromycin B) at 37° C. in 5% (v/v) CO2. • 2. One day before the assays, cells were detached using TrypLE™ and counted using a cell-counter. Only cells with >85% viability are used for the assay. • 3. […] Plates were read for 160 sec with 1 sec intervals to obtain the data in agonist mode, then kept at 25° C. in the dark for 30 min. • 11. […] Plates were read for 160 sec with 1 sec intervals, thereby measuring the ability for test compounds to antagonize the activation of muscarinic receptors by Ach.
(Calcium flux is commonly read through the fluorescence of an indicator in the cells.)

Series [3] addresses T3, human muscarinic receptor M2 (Homo sapiens, UniProt P08172).
T3 construct: expressed in transfected cells
Description: Calcium flux assay (FLIPR), CHO cells expressing human M2. Format: cell-based. As to conditions: agonist mode. Here is the method:
as §1

For series [4] the following is noted: dogs.

A value given as a limit tells only on which side of the number the result lay.

T2 sequence (P08912 whole entry): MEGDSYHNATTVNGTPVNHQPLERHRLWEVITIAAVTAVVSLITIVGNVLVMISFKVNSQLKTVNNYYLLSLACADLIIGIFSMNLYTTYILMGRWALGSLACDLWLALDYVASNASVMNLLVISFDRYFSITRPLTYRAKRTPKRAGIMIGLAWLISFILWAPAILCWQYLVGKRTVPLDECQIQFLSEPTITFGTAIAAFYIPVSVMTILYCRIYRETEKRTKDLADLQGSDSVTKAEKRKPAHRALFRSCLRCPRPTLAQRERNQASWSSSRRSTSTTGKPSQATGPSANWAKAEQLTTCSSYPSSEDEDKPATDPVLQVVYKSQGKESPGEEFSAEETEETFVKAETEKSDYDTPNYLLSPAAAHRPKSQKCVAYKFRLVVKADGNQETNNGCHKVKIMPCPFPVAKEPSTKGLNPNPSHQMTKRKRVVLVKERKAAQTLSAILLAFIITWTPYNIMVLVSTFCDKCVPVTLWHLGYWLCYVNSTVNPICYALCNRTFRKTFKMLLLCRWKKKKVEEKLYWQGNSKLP
T1 sequence (P08173 whole entry): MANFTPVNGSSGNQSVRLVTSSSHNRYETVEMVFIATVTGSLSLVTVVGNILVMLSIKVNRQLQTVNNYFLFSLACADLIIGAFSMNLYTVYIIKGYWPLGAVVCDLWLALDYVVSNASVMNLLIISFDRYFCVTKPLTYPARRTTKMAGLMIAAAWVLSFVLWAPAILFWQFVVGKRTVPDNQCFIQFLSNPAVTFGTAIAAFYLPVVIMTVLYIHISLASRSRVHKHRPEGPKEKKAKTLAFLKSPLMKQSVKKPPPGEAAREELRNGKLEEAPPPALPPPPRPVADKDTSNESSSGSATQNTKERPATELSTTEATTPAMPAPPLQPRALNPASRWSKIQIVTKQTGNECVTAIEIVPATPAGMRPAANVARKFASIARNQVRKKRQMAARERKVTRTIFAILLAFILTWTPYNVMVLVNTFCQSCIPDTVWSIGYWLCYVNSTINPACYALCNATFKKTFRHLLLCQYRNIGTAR
T3 sequence (P08172 whole entry): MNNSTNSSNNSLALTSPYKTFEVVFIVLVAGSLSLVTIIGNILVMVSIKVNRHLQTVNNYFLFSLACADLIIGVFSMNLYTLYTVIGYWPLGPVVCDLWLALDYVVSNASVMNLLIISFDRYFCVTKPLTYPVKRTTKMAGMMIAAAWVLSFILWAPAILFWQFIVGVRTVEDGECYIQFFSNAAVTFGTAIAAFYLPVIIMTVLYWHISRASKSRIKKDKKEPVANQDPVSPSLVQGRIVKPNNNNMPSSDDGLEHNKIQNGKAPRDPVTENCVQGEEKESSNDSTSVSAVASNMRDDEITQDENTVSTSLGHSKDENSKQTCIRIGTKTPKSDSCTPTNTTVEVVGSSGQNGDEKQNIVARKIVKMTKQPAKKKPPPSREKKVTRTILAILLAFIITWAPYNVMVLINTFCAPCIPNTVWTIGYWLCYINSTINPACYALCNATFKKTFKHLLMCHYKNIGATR

With `C[C@@H](C[N+](C)(C)C)OC(N)=O.[Cl-]` [(S)-BTC, (S)-bethanechol], the EC50 in series [1] is more than 10000 nM; in series [2], 124 nM; in series [3], 405 nM.
For the molecule `O[C@@](CCN1CCCCC1)(c1ccccc1)C1CCCCC1` [(R)-THP, (R)-trihexyphenidyl], the “share of total THP that was (R)-THP” value in series [4] (IV 0.2 mg/kg Racemic THP) is on record as approximately 60%. Also, in series [4] (oral 2 mg/kg Racemic THP, alone or co-dosed with Bethanechol), the “share of serum THP detected that was (R)-THP” value was “over 80%”.
